Assays:
[1] = test system: PBMC isolated from M. bovis-infected cattle; format: cell-based
M. bovis infected cattle = conditions: Mustafa et al., 2006, cited from earlier work
[2] = test system: PBMC isolated from M. bovis-infected cattle; format: cell-based; remark: listed apart in the source

| Substance | intracellular IFN-γ production [1] | recognition / response in ELISPOT (cattle responding of the three tested) [2] | also measured |
| --- | --- | --- | --- |
| VYLTAHNALG SSLHTAGVDL (VYLTAHNALGSSLHTAGVDL; fragment of full length protein) [SEQ ID NO: 9] | Markedly higher levels of IFN-γ |  |  |
| LGSSLHTAGV DLAKSLRIAA (LGSSLHTAGVDLAKSLRIAA; fragment of full length protein) [SEQ ID NO: 10] | Markedly higher levels of IFN-γ |  |  |
| Rv3616c: product of the first gene of the Rv3616c-Rv3612c operon, a dominant mycobacterial antigen (Mustafa et al., 2006) |  |  | vaccinated individuals that respond (M. bovis infected cattle; BCG vaccinated): 40%; frequency of recognition in M. bovis infected cattle (M. bovis infected cattle): 84.6% |
| RIAAKIYSEA DEAWRKAIDG (RIAAKIYSEADEAWRKAIDG; fragment of full length protein) [SEQ ID NO: 12] | Markedly higher levels of IFN-γ |  |  |
| AKIYSEADEA WRKAIDGLFT (AKIYSEADEAWRKAIDGLFT; fragment of full length protein) [SEQ ID NO: 13] | Markedly higher levels of IFN-γ | all three | average spot-forming units (SFU) [2]: 509 SFU per 10^6 PBMC |
| GVDLAKSLRI AAKIYSEADE (GVDLAKSLRIAAKIYSEADE; fragment of full length protein) [SEQ ID NO: 11] | no IFN-γ response | a response was recorded | dead cells in the sample [1]: > 64% |

Source: patent publication US9618509B2 (priority 2007, dated 2017)
